Molecular target: T1, human IDO1 (Homo sapiens, UniProt P14902)
T1 construct: expressed in transfected cells
Experiment: human IDO1/HEK293 cell IDO inhibition assay (kynurenine production)
Type: cell-based
Details: HEK293 cells stably expressing human IDO1; 20 hours incubation; absorbance at 490 nm; read-out: Biol. Activity (HEK μM) IDO IC50
Protocol: HEK293 cells were transfected with a pCDNA-based mammalian expression vector harboring human IDO1 cDNA (NM 002164.2) by electroporation. They were cultured in medium (DMEM with 10% FBS) containing 1 mg/ml G418 for two weeks. Clones of HEK293 cells that stably expressed human IDO1 protein were selected and expanded for IDO inhibition assay.
The human IDO1/HEK293 cells were seeded at 10,000 cells per 50 μL per well with RPMI/phenol red free media contains 10% FBS in a 384-well black wall clear bottom tissue culture plate (Matrix Technologies LLC) 100 nL of certain concentration of compound was then added to each well using ECHO liquid handling systems. The cells were incubated for 20 hours in 37° C. incubator with 5% CO2.
The compound treatments were stopped by adding trichloroacetic acid (Sigma-Aldrich) to a final concentration at 0.2%. The cell plate was further incubated at 50° C. for 30 minute. The equal volume supernatant (20 μL) and 0.2% (w/v) Ehrlich reagent (4-dimethylaminobenzaldehyde, Sigma-Aldrich) in glacial acetic acid were mixed in a new clear bottom 384-well plate. This plate was then incubated at room temperature for 30 minute. The absorbance at 490 nm was measured on Envision plate reader.
Compound IC50 values were calculated using the counts of 500 nM of a reference standard treatment as one hundred percent inhibition, and counts of no compound but DMSO treatment as zero percent inhibition.

T1 sequence (P14902 whole entry): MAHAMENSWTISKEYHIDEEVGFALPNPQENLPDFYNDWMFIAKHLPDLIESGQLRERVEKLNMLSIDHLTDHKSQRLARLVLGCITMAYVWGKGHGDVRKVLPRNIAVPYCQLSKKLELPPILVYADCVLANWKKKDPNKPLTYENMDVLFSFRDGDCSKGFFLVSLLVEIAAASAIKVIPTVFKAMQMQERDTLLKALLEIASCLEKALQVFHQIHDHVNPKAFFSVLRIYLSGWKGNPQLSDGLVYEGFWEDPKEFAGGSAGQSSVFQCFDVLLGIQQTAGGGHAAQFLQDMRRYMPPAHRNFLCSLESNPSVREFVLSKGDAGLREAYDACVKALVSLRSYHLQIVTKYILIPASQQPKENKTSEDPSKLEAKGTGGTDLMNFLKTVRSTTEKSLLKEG

IC50 [µM] | SMILES
< 10 | O=C(Cc1ccc(Cl)cc1)N(Cc1ccccc1)[C@H]1CC[C@H](c2ccnc3ccc(F)cc32)CC1 [Example 1, N-benzyl-2-(4-chlorophenyl)-N-(trans-4-(6-fluoroquinolin-4-yl)cyclohexyl)acetamide]
< 1 | O=C(c1ccc(Cl)cc1)N(Cc1ccccc1)[C@H]1CC[C@H](c2ccnc3ccc(F)cc32)CC1 [Example 2, N-benzyl-4-chloro-N-(trans-4-(6-fluoroquinolin-4-yl)cyclohexyl)benzamide]
< 10 | N#Cc1ccc(C(=O)N(Cc2ccccc2)[C@H]2CC[C@H](c3ccnc4ccc(F)cc43)CC2)cc1 [Example 3, N-benzyl-4-cyano-N-(trans-4-(6-fluoroquinolin-4-yl)cyclohexyl)benzamide]
< 10 | O=C(Cc1ccc(Cl)cc1)N(Cc1ccccc1)[C@H]1CC[C@@H](c2ccnc3ccc(F)cc32)CC1 [Example 4, N-benzyl-2-(4-chlorophenyl)-N-(cis-4-(6-fluoroquinolin-4-yl)cyclohexyl)acetamide]

From patent US10323004B2, “Inhibitors of indoleamine 2,3-dioxygenase and methods of their use” (BRISTOL-MYERS SQUIBB COMPANY, priority 2016, dated 2019)
